How the values were obtained:
[1] = biological target: CK1δ (Homo sapiens (Human), UniProt P48730); experiment: CK1δ kinase assay (Caliper LABCHIP electrophoretic separation of fluoresceinated peptide substrate and product); type: biochemical; details: 200 pM enzyme, 50 μM ATP, 22 hours at room temperature
In short: (§1)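 Incubated for twenty-two hours at ambient temperature, then quenched with EDTA and analyzed by electrophoretic separation of unphosphorylated and phosphorylated peptide.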

[2] = biological target: CK1ε (Homo sapiens (Human), UniProt P49674); experiment: CK1ε kinase assay (Caliper LABCHIP electrophoretic separation of fluoresceinated peptide substrate and product); type: biochemical; details: 200 pM enzyme, 50 μM ATP, 22 hours at room temperature
Chain of CK1ε (P49674 whole entry): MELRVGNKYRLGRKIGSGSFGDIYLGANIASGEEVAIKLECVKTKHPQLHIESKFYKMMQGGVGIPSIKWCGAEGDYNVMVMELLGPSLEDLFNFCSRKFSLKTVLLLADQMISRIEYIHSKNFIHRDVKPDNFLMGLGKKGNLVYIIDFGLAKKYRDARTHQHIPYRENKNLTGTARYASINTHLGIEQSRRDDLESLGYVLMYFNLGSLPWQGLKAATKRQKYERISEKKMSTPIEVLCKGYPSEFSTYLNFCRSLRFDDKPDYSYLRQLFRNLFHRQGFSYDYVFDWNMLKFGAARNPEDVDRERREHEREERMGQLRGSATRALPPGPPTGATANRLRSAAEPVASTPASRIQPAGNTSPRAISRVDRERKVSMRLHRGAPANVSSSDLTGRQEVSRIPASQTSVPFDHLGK
In short: as §1

Chain of CK1δ (P48730 whole entry): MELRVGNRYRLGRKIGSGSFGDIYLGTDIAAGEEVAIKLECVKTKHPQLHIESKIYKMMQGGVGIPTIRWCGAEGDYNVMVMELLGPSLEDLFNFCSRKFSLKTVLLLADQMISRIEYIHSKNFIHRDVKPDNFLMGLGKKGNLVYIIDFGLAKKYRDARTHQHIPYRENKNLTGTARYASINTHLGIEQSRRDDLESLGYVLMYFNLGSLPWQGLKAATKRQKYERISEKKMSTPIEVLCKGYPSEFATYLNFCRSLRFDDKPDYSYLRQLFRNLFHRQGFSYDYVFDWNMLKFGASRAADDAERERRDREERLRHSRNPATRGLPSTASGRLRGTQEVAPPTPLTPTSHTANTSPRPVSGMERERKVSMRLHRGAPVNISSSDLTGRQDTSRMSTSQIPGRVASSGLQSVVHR

Structure (SMILES)	IC50 [1]	IC50 [2]
O=C(Nc1cn2nc(-c3c(-c4ccc(F)cc4)nc4n3CCNC4)ccc2n1)c1ccncc1 [Compound 456, N-(6-(2-(4-Fluorophenyl)-5,6,7,8-tetrahydroimidazo[1,2-a]pyrazin-3-yl)imidazo[1,2-b]pyridazin-2-yl)isonicotinamide]	0.9 nM	7 nM
O=C(Nc1cn2nc(-c3c(-c4ccc(F)cc4)ncn3-c3ccc(F)cc3)ccc2n1)c1cc(F)nc(F)c1 [Compound 418, N-(6-(1,4-bis(4-Fluorophenyl)-1H-imidazol-5-yl)imidazo[1,2-b]pyridazin-2-yl)-2,6-difluoroisonicotinamide]	6.4 nM	79.2 nM
O=C(Nc1cn2nc(-c3c(-c4ccc(F)cc4)ncn3CCN3CCOCC3)ccc2n1)c1ccnc(N2CCOCC2)c1 [Compound 168, N-(6-(4-(4-fluorophenyl)-1-(2-morpholinoethyl)-1H-imidazol-5-yl)imidazo[1,2-b]pyridazin-2-yl)-2-morpholinoisonicotinamide]	0.11 nM	1.73 nM
O=C(Nc1cn2nc(-c3c(-c4ccc(F)cc4)nc4n3CCOC4)ccc2n1)c1cc(F)nc(F)c1 [Compound 449, 2,6-Difluoro-N-(6-(2-(4-fluorophenyl)-6,8-dihydro-5H-imidazo[2,1-c][1,4]oxazin-3-yl)imidazo[1,2-b]pyridazin-2-yl)isonicotinamide]	0.7 nM	9 nM
Cc1nc(-c2ccc(F)cc2)c(-c2ccc3nc(NC(=O)c4cn(C)cn4)cn3n2)n1C [Compound 362, N-(6-(4-(4-fluorophenyl)-1,2-dimethyl-1H-imidazol-5-yl)imidazo[1,2-b]pyridazin-2-yl)-1-methyl-1H-imidazole-4-carboxamide]	6.34 nM	87.5 nM
O=C(Nc1cn2nc(-c3c(-c4ccc(F)cc4)ncn3CCN3CCOCC3)ccc2n1)c1ccncc1 [Compound 160, N-(6-(4-(4-fluorophenyl)-1-(2-morpholinoethyl)-1H-imidazol-5-yl)imidazo[1,2-b]pyridazin-2-yl)isonicotinamide]	0.306 nM	3.21 nM
O=C(Nc1cn2nc(-c3c(-c4ccc(F)cc4)ncn3C3CCN(C(=O)CCCl)CC3)ccc2n1)c1ccnc(F)c1 [Compound 70, N-(6-(1-(1-(3-chloropropanoyl)piperidin-4-yl)-4-(4-fluorophenyl)-1H-imidazol-5-yl)imidazo[1,2-b]pyridazin-2-yl)-2-fluoroisonicotinamide]	0.143 nM	0.493 nM
O=C(Nc1cn2nc(-c3c(-c4ccc(F)cc4)nc(C4CC4)n3C3CCN(Cc4ccon4)CC3)ccc2n1)c1cccc(-c2cccnc2)c1 [Compound 138, N-(6-(2-cyclopropyl-4-(4-fluorophenyl)-1-(1-(isoxazol-3-ylmethyl)piperidin-4-yl)-1H-imidazol-5-yl)imidazo[1,2-b]pyridazin-2-yl)-3-(pyridin-3-yl)benzamide]	1.56 nM	11 nM
Cc1nc(-c2ccc(F)cc2)c(-c2ccc3nc(NC(=O)Nc4ccc(C#N)cc4)cn3n2)n1C [Compound 408, 1-(4-cyanophenyl)-3-(6-(4-(4-fluorophenyl)-1,2-dimethyl-1H-imidazol-5-yl)imidazo[1,2-b]pyridazin-2-yl)urea]	12.9 nM	296 nM
Cc1nc(-c2ccc(Cl)cc2)c(-c2ccc3nc(NC(=O)c4ccnc(F)c4)cn3n2)n1CC(F)(F)F [Compound 295, N-(6-(4-(4-chlorophenyl)-2-methyl-1-(2,2,2-trifluoroethyl)-1H-imidazol-5-yl)imidazo[1,2-b]pyridazin-2-yl)-2-fluoroisonicotin-amide]	0.126 nM	5.95 nM
Cc1nc(-c2ccc(F)cc2)c(-c2ccc3nc(NC(=O)c4cc5ccccc5[nH]4)cn3n2)n1C [Compound 319, N-(6-(4-(4-fluorophenyl)-1,2-dimethyl-1H-imidazol-5-yl)imidazo[1,2-b]pyridazin-2-yl)-1H-indole-2-carboxamide]	1.73 nM	12.1 nM
O=C(Nc1cn2nc(-c3c(-c4ccc(F)cc4)ncn3CCn3cccn3)ccc2n1)c1ccnc(F)c1 [Compound 254, 2-fluoro-N-(6-(4-(4-fluorophenyl)-1-(2-(1H-pyrazol-1-yl)ethyl)-1H-imidazol-5-yl)imidazo[1,2-b]pyridazin-2-yl)isonicotinamide]	1.12 nM	18.7 nM
N#Cc1ccc(C(=O)Nc2cn3nc(-c4c(-c5ccc(F)cc5)nc5ccccn45)ccc3n2)cn1 [Compound 183, 6-cyano-N-(6-(2-(4-fluorophenyl)imidazo[1,2-a]pyridin-3-yl)imidazo[1,2-b]pyridazin-2-yl)nicotinamide]	0.207 nM	3.82 nM
CC1(C(=O)N2CCn3c(nc(-c4ccc(F)cc4)c3-c3ccc4nc(NC(=O)c5ccnc(F)c5)cn4n3)C2)COC1 [Compound 468, 2-Fluoro-N-(6-(2-(4-fluorophenyl)-7-(3-methyloxetane-3-carbonyl)-5,6,7,8-tetrahydroimidazo[1,2-a]pyrazin-3-yl)imidazo[1,2-b]pyridazin-2-yl)isonicotinamide]	0.5 nM	3.9 nM
CCn1cnc(-c2ccc(F)cc2)c1-c1ccc2nc(NC(=O)c3ccnc(F)c3)cn2n1 [Compound 232, N-(6-(1-ethyl-4-(4-fluorophenyl)-1H-imidazol-5-yl)imidazo[1,2-b]pyridazin-2-yl)-2-fluoroiso-nicotinamide]	0.322 nM	1.54 nM
CC(C)(O)C(=O)N1CCC(n2cnc(-c3ccc(F)cc3)c2-c2ccc3nc(NC(=O)c4ccnc(F)c4)cn3n2)CC1 [Compound 55, 2-fluoro-N-(6-(4-(4-fluorophenyl)-1-(1-(2-hydroxy-2-methylpropanoyl)piperidin-4-yl)-1H-imidazol-5-yl)imidazo[1,2-b]pyridazin-2-yl)isonicotinamide]	0.178 nM	1.05 nM
CC1(C)CC1C(=O)N1CCn2c(nc(-c3ccc(F)cc3)c2-c2ccc3nc(NC(=O)c4ccnc(F)c4)cn3n2)C1 (centres unmarked) [Compound 473, N-(6-(7-(2,2-Dimethylcyclopropanecarbonyl)-2-(4-fluorophenyl)-5,6,7,8-tetrahydroimidazo[1,2-a]pyrazin-3-yl)imidazo[1,2-b]pyridazin-2-yl)-2-fluoroisonicotinamide]	0.5 nM	2.9 nM
Cc1nc(-c2ccc(F)cc2)c(-c2ccc3nc(NC(=O)c4cnc5ccccc5n4)cn3n2)n1C [Compound 310, N-(6-(4-(4-fluorophenyl)-1,2-dimethyl-1H-imidazol-5-yl)imidazo[1,2-b]pyridazin-2-yl) quinoxaline-2-carboxamide]	1.03 nM	8.37 nM
O=C(Nc1cn2nc(-c3c(-c4ccc(F)cc4)ncn3C3CCN(C(=O)c4ccsn4)CC3)ccc2n1)c1ccnc(F)c1 [Compound 50, 2-fluoro-N-(6-(4-(4-fluorophenyl)-1-(1-(isothiazole-3-carbonyl)piperidin-4-yl)-1H-imidazol-5-yl)imidazo[1,2-b]pyridazin-2-yl)isonicotinamide]	0.278 nM	1.1 nM
CC(C)(C)C(=O)Nc1cn2nc(-c3c(-c4ccc(F)cc4)ncn3Cc3ccccc3)ccc2n1 [Compound 275, N-(6-(1-benzyl-4-(4-fluorophenyl)-1H-imidazol-5-yl)imidazo[1,2-b]pyridazin-2-yl)pivalamide]	0.545 nM	4.23 nM
Cc1nc(-c2ccc(F)cc2)c(-c2ccc3nc(NC(=O)c4cc5c(F)cccc5[nH]4)cn3n2)n1C [Compound 341, 4-fluoro-N-(6-(4-(4-fluoro-phenyl)-1,2-dimethyl-1H-imidazol-5-yl)imidazo[1,2-b]pyridazin-2-yl)-1H-indole-2-carboxamide]	1.32 nM	8.85 nM
O=C(Nc1cn2nc(-c3c(-c4ccc(F)cc4)nc4n3CCNC4)ccc2n1)c1cccc(-c2cccnc2)c1 [Compound 459, N-(6-(2-(4-Fluorophenyl)-5,6,7,8-tetrahydroimidazo[1,2-a]pyrazin-3-yl)imidazo[1,2-b]pyridazin-2-yl)-3-(pyridin-3-yl)benzamide]	0.3 nM	2.6 nM
O=C(Nc1cn2nc(-c3c(-c4ccc(F)cc4)ncn3CC(F)F)ccc2n1)c1ccnc(F)c1 [Compound 237, N-(6-(1-(2,2-difluoroethyl)-4-(4-fluorophenyl)-1H-imidazol-5-yl)imidazo[1,2-b]pyridazin-2-yl)-2-fluoroisonicotinamide]	0.365 nM	1.35 nM
Cc1nc(-c2ccc(F)cc2)c(-c2ccc3nc(NC(=O)c4c[nH]c5ccccc45)cn3n2)n1C [Compound 342, N-(6-(4-(4-fluorophenyl)-1,2-dimethyl-1H-imidazol-5-yl)imidazo[1,2-b]pyridazin-2-yl)-1H-indole-3-carboxamide]	1.41 nM	4.89 nM
Cc1nc(-c2ccc(F)cc2)c(-c2ccc3nc(NC(=O)c4ncccn4)cn3n2)n1C [Compound 383, N-(6-(4-(4-fluorophenyl)-1,2-dimethyl-1H-imidazol-5-yl)imidazo[1,2-b]pyridazin-2-yl)pyrimidine-2-carboxamide]	6.34 nM	17.3 nM
O=C(Nc1cn2nc(-c3c(-c4ccc(F)cc4)nc4n3CCC4)ccc2n1)c1cccc(-c2cccnc2)c1 [Compound 440, N-(6-(2-(4-Fluorophenyl)-6,7-dihydro-5H-pyrrolo[1,2-a]imidazol-3-yl)imidazo[1,2-b]pyridazin-2-yl)-3-(pyridin-3-yl)benzamide]	0.4 nM	1.3 nM
O=C(Nc1cn2nc(-c3c(-c4ccc(F)cc4)ncn3CCc3c[nH]cn3)ccc2n1)c1ccnc(F)c1 [Compound 255, 2-fluoro-N-(6-(4-(4-fluorophenyl)-1-(2-(1H-imidazol-4-yl)ethyl)-1H-imidazol-5-yl)imidazo[1,2-b]pyridazin-2-yl)isonicotinamide]	0.386 nM	2.45 nM
Cc1nnc(C(=O)Nc2cn3nc(-c4c(-c5ccc(F)cc5)nc(C)n4C)ccc3n2)o1 [Compound 367, N-(6-(4-(4-fluorophenyl)-1,2-dimethyl-1H-imidazol-5-yl)imidazo[1,2-b]pyridazin-2-yl)-5-methyl-1,3,4-oxa-diazole-2-carboxamide]	3.65 nM	49.7 nM

— patent US9556179B2 (BRISTOL-MYERS SQUIBB COMPANY, priority 2012, dated 2017)
